Legend:
Propionibacterium acnes = experiment: Proliferation test with paper disc on agar plate (growth inhibition zone); assay type: cell-based, Propionibacterium acnes (JCM 6425); settings: test substance (COSARTE-2G or glycerin) diluted to 40% by mass, 50 µL on paper disc; GAM agar, anaerobic, 48 hours
Description: (§1) As glyceryl glucoside, COSARTE-2G (manufactured by Toyo Sugar Refining Co., Ltd.) was diluted with ion-exchanged water such that COSARTE-2G was 40% by mass. Further, as a positive control, BD (Sensi-Disc Tetracycline 30, Antimicrobial Susceptibility Test Kit, manufactured by Nippon Becton Dickinson Company, Ltd.) was used. As a control, glycerin (manufactured by Nacalai Tesque Inc.) was diluted with ion-exchanged water to be 40% by mass.
Propionibacterium acnes (JCM 6425) was used as a representative strain of Propionibacterium acnes. A Propionibacterium acnes strain was added to GAM liquid medium and pre-cultured at 35°C under anaerobic conditions using an AnaeroPack.
(§2) GAM agar plates and BHI agar plates were prepared. Pre-cultured Propionibacterium acnes, Streptococcus mutans, and Staphylococcus aureus strains in the logarithmic growth phase were suspended in liquid medium to a concentration of 1 × 10^7 cells/mL, and 50 µL of this suspension was taken and spread onto each agar plate medium using a glass spreader.
(§3) Each test substance was sterilized by filtration using a membrane filter, and then 50 µL was impregnated into a sterilized paper disc. […]
(§4) The effect of inhibiting the proliferation of bacteria was determined by the presence or absence and size of the growth inhibition zone around the paper disc.

Streptococcus mutans = experiment: as above; assay type: cell-based, Streptococcus mutans (JCM 5705); settings: test substance (COSARTE-2G or glycerin) diluted to 40% by mass, 50 µL on paper disc; BHI agar, 48 hours
Description: as §1
Streptococcus mutans (JCM 5705) was used as a representative strain of Streptococcus mutans. A Streptococcus mutans strain was added to BHI liquid medium and pre-cultured at 35°C.
as §2
Each test substance was sterilized by filtration using a membrane filter, and then 50 µL was impregnated into a sterilized paper disc. A paper disk was aseptically placed on an agar plate medium, and cultured for 48 hours under conditions suitable for each bacterial strain.
as §4

Staphylococcus aureus [1] = experiment: as above; assay type: cell-based, Staphylococcus aureus (NBRC 13276); settings: test substance (COSARTE-2G or glycerin) diluted to 40% by mass, 50 µL on paper disc; BHI agar, 48 hours
Description: as §1
Staphylococcus aureus (NBRC 13276) was used as a representative strain of Staphylococcus aureus. A Staphylococcus aureus strain was added to BHI liquid medium and pre-cultured at 37°C.
as §2, §3, §4

Lactobacillus crispatus = experiment: Bacterial proliferation test (turbidity, absorbance at 600 nm); assay type: cell-based, Lactobacillus crispatus (ATCC 33820); settings: C-mo 2G at final concentrations of 0.5%, 1.0%, 2.0% in medium; 1 culture day, 37°C, 5%CO2; n = 3
Excerpt: (§5) C-mo2G (manufactured by Toyo Sugar Refining Co., Ltd.) was used as glyceryl glucoside. Furthermore, as a positive control, penicillin-streptomycin (manufactured by FUJIFILM Wako Pure Chemical Corporation, No. 168-23191) was used. Sterile water was used as a control.
(§6) Bacteria and media shown in Table 1 were used, and cultured under the conditions in Table 1.
(§7) As a GAM semi-fluid high layer medium, NO.05424 manufactured by NISSUI PHARMACEUTICAL CO., LTD. was used.
(§8) The number of culture days was set to such a number of days that bacterial proliferation could be visually confirmed in the control.
(§9) Each bacterium in which a frozen stock (15% (vol/vol) glycerin was added to the medium) was inoculated into 9 mL of the medium, and culture was started. After culturing until reaching the logarithmic growth phase, the medium was well stirred to make the turbidity uniform, and then the absorbance at 600 nm was measured. The medium was diluted with a medium such that the absorbance (600 nm) was 0.1, and this was used as a bacterial diluent.
(§10) C-mo 2G was added to the medium at final concentrations of 0.5%, 1.0%, and 2.0%. […]
(§11) 200 µL of the bacterial diluent was added to 9 mL of the medium containing the test substance, and culture was started. After culturing, the medium was well stirred to make the turbidity uniform, and then the absorbance (turbidity) at 600 nm was measured. […]

Lactobacillus iners = experiment: as above; assay type: cell-based, Lactobacillus iners (ATCC 55195); settings: C-mo 2G at final concentrations of 0.5%, 1.0%, 2.0% in medium; 3 culture days, 37°C, 5%CO2; n = 3
Excerpt: as §5, §6, §7, §8, §9, §10, §11

Gardnerella vaginalis = experiment: as above; assay type: cell-based, Gardnerella vaginalis (ATCC 14018); settings: C-mo 2G at final concentrations of 0.5%, 1.0%, 2.0% in medium; 3 culture days, 37°C, 5%CO2; n = 3; effect concentration dependent
Excerpt: as §5, §6, §7, §8, §9, §10, §11

Atopobium vaginae = experiment: as above; assay type: cell-based, Atopobium vaginae (ATCC BAA-55); settings: C-mo 2G at final concentrations of 0.5%, 1.0%, 2.0% in medium; 2 culture days, 37°C, anaerobic; n = 3; effect concentration dependent
Excerpt: as §5, §6, §7, §8
An experiment was performed using Atopobium vaginae as a representative bacterium of the genus Atopobium.
as §9, with “diluent. […]” for “diluent.”
as §11

[2] = Primary skin irritation test; assay type: in vivo; settings: rabbit
[3] = Repeated skin irritation test; settings: in vivo
[4] = Skin sensitization test (intracutaneous Maximization method); assay type: in vivo; settings: guinea pig intracutaneous Maximization method
Phototoxicity test = assay type: in vivo; settings: guinea pig
Photosensitization test = settings: in vivo
Eye irritation test = assay type: in vivo; settings: rabbit
[5] = Mutagenicity test (in vitro)
Human patch test = assay type: in vivo
Water solubility = assay type: physicochemical
[6] = reported in Patent Literature 2; cited from earlier work
Escherichia coli = settings: viable count after 24 hours or 48 hours exposure; Patent Literature 2; cited from earlier work
Staphylococcus aureus [7] = settings: viable count after 24 hours or 48 hours exposure; Patent Literature 2; cited from earlier work
Pseudomonas aeruginosa = settings: viable count after 24 hours or 48 hours exposure; Patent Literature 2; cited from earlier work
Pseudomonas cepacia = settings: viable count after 24 hours or 48 hours exposure; Patent Literature 2; cited from earlier work
[8] = system: Staphylococcus epidermidis; settings: viable count after 24 hours or 48 hours exposure; Patent Literature 2; cited from earlier work
[9] = system: Corynebacterium minutissimum; settings: viable count after 24 hours or 48 hours exposure; Patent Literature 2; cited from earlier work

OCC(O)CO [Glycerin, glycerin, reference compound]
growth inhibition zone around the paper disc, Propionibacterium acnes (Propionibacterium acnes): same result as glyceryl glucoside | growth inhibition zone around the paper disc, Streptococcus mutans (Streptococcus mutans): same result as glyceryl glucoside | growth inhibition zone around the paper disc, Staphylococcus aureus (Staphylococcus aureus [1]): same result as glyceryl glucoside

glyceryl glucoside
proliferation of Lactobacillus crispatus (number of bacteria, absorbance 600 nm) relative to control (Lactobacillus crispatus): little change in the number | proliferation of Lactobacillus iners (number of bacteria, absorbance 600 nm) relative to control (Lactobacillus iners): increased | proliferation of Gardnerella vaginalis (absorbance 600 nm) relative to control (Gardnerella vaginalis): significantly inhibited | proliferation of Atopobium vaginae (absorbance 600 nm) relative to control (Atopobium vaginae): significantly inhibited | growth inhibition zone around the paper disc, Propionibacterium acnes (Propionibacterium acnes): no growth inhibition zone | growth inhibition zone around the paper disc, Streptococcus mutans (Streptococcus mutans): no growth inhibition zone | growth inhibition zone around the paper disc, Staphylococcus aureus (Staphylococcus aureus [1]): no growth inhibition zone | toxicity in primary skin irritation test [2]: no toxicity | toxicity in repeated skin irritation test [3]: no toxicity | toxicity in skin sensitization test [4]: no toxicity | toxicity in phototoxicity test (Phototoxicity test): no toxicity | toxicity in photosensitization test (Photosensitization test): no toxicity | toxicity in eye irritation test (Eye irritation test): no toxicity | toxicity in mutagenicity test [5]: no toxicity | toxicity in human patch test (Human patch test): no toxicity | water solubility (Water solubility): good

α-D-glucopyranosylglycerol
skin irritation [6]: no skin irritation | antimicrobial activity against Escherichia coli (Escherichia coli): antimicrobial activity | antimicrobial activity against Staphylococcus aureus (Staphylococcus aureus [7]): antimicrobial activity | antimicrobial activity against Pseudomonas aeruginosa (Pseudomonas aeruginosa): antimicrobial activity | antimicrobial activity against Pseudomonas cepacia (Pseudomonas cepacia): antimicrobial activity | antimicrobial activity against Staphylococcus epidermidis [8]: antimicrobial activity | antimicrobial activity against Corynebacterium minutissimum [9]: antimicrobial activity

From patent EP4732840A1, “AGENT FOR SUPPRESSING PROLIFERATION OF BACTERIA, AND COSMETIC, QUASI-DRUG, AND PHARMACEUTICAL COMPOSITION CONTAINING SAID AGENT, AND METHOD FOR SUPPRESSING PROLIFERATION OF BACTERIA” (Toyo Sugar Refining Co., Ltd., priority 2023, dated 2024)
